# Test results from patent US6413951B2, “20-fluoro-17(20)-vinyl steroids” (Aventis Pharmaceuticals, Inc., priority 2000, dated 2002).
# Columns and labels:
# [1] = tested on: cynomologous monkey C17,20 lyase; assay: In vitro C17,20 lyase assay (testicular microsomes); assay type: biochemical, cynomolgus monkey; set-up: unit of the concentration uncertain
# Procedure: In vitro C17,20 lyase assay: Compounds were tested for inhibition of cynomologous monkey C17,20 lyase in vitro using microsomal preparations of the enzyme from testicular tissue. Testes were removed from anesthetized animals and flash frozen in liquid nitrogen. Microsomes were isolated as described in Schatzman et al., Anal. Biochem., 175, 219-226 (1988). The compound to be tested was dissolved in DMSO and diluted in 0.05M potassium phosphate buffer, pH 7.4, to give the desired concentrations of test compound, in an amount which contributes 0.1% v/v DMSO to the total assay volume. […] Control assays contained all components, including DMSO, but no test compound. All assays were performed in duplicate. […] The complete assay was incubated at 34° C. for 6 minutes. […] Radioactivity in the steriod peaks was measured using a Radiometric Model HS or Model A515 Flo-One detector. The enzyme activity for each assay was calculated from the conversion of substrate to products, and. the results expressed as percent inhibition of control.
# [2] = tested on: cynomolgus monkey 5α-reductase; conditions: read-out: Km values of testosterone, multiple experiments
# Procedure: (§1) In vitro 5α-reductase assay: The activity of the present compounds as inhibitors of steroid 5α-reductase was determined using microsomal preparations of the 5α-reductase enzyme from human or laboratory animal prostate tissue. Specifically, prostate tissue was rapidly frozen in liquid nitrogen following removal from the human patient or from a cynomologus monkey (Macaca fascicularis) and subsequently stored at −80° C. The tissue was thawed, minced, and then homogenized in 5 volumes of 0.05M potassium phosphate buffer, pH 7.0, using a Tekmar homogenizer with 3×5 second bursts, followed by 10 strokes in a Dounce homogenizer. The homogenate was sonified in three pulses of 5 seconds each at 50% of maximum power. The homogenate was subjected to differential centrifugation with each supernatant successively centrifuged at 600×G and […] in a Beckman J21 centrifuge followed by 120,000×G in a Beckman Model L5-75 ultracentrifuge. The final pellet, containing the microsomal fraction, was reserved and resuspended in 0.05M potassium phosphate buffer, pH 7.0, containing 25% (w/v) glycerol equal to 1 mL per 3 g wet tissue. The suspension was divided into aliquots, flash frozen using dry ice in methanol, and stored at −80° C. […] Protein concentration was determined by the BioRad dye binding method (BioRad, Richmond, Calif., USA). […]
# rat 5α-reductase = conditions: read-out: Km values of testosterone, multiple experiments
# human 5α-reductase = biological target: T1, human 5α-reductase (Homo sapiens, UniProt P31213); assay: In vitro 5α-reductase assay (prostate microsomes), human; assay type: biochemical; conditions: read-out: Km values of testosterone, multiple experiments
# T1 construct: microsomal preparations of the 5α-reductase enzyme from human or laboratory animal prostate tissue; from tissue; host or cells: human prostate, microsomes
# T1 sequence (P31213 1-254): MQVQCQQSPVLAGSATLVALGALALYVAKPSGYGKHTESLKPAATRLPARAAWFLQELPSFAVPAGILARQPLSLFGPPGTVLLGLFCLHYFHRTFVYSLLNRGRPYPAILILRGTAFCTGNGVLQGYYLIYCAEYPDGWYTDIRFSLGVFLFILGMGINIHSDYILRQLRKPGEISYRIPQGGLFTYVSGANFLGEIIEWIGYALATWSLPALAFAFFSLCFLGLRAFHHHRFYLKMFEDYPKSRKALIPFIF
# Procedure: as §1
# [3] = Conc. 1 (unit uncertain), Preinc. 0 min
# [4] = Conc. 1 (unit uncertain), Preinc. 40 min
# [5] = Conc. 10 (unit uncertain), Preinc. 0 min
# [6] = Conc. 10 (unit uncertain), Preinc. 40 min
Compound,melting point,"% Inhibition [1, 3]","% Inhibition [1, 4]","% Inhibition [1, 5]","% Inhibition [1, 6]",Km [2],Km (rat 5α-reductase),Km (human 5α-reductase)
"C[C@]12CC[C@H](O)CC1=CC[C@@H]1[C@@H]2CC[C@]2(C)/C(=C(/F)CO)CC[C@@H]12 [E CH2OH, (17E)-20-Fluoropregna-5,17(20)-diene-3β,21-diol]",214 to 216 °C,63%,61%,85%,87%,–,–,–
"C/C(F)=C1/CC[C@H]2[C@@H]3CC=C4C[C@@H](O)CC[C@]4(C)[C@H]3CC[C@]12C [E CH3, (17E)-20-fluoropregna-5,17(20)-dien-3β-ol]",129 to 133 °C,54%,60%,88%,94%,–,–,–
"C[C@]12CC[C@H](O)CC1=CC[C@@H]1[C@@H]2CC[C@]2(C)/C(=C(\F)CO)CC[C@@H]12 [Z CH2OH, (17Z)-20-Fluoropregna-5,17(20)-diene-3β,21-diol]",198 to 203 °C,96%,94%,100%,100%,–,–,–
"C/C(F)=C1\CC[C@H]2[C@@H]3CC=C4C[C@@H](O)CC[C@]4(C)[C@H]3CC[C@]12C [Z CH3, (17Z)-20-Fluoropregna-5,17(20)-dien-3β-ol]",153 to 155 °C,49%,72%,78%,94%,–,–,–
"C[C@]12CC[C@H]3[C@@H](CCC4=CC(=O)CC[C@@]43C)[C@@H]1CC[C@@H]2O [testosterone, 17β-hydroxyandrost-4-en-3-one]",–,–,–,–,–,0.025 to 0.091 µM,0.74 to 0.9 µM,0.125 to 0.273 µM
